Results: patent US20020143164A1, “Ras activator nucleic acid molecules, polypeptides and methods of use” (priority 1999, published 2002)

Tests used:
GRF4 [1] = target: T1, GRF4 (Homo sapiens, UniProt Q9Y4G8); test: Ras activation assay in living cells (GST-Raf1-RBD pull-down), treatment of GRF4-transfected cells; type: cell-based; settings: for Effect of PKG inhibitor on 8-Br-cGMP enhanced activation of Ras by GRF4: H-8 5 μM or Rp-8-Br-cGMPS 25 μM, then 8-Br-cGMP 500 μM; for Effect of PKG inhibitor on 8-Br-cGMP enhanced activation of Ras by GRF4 / cAMP stimulation of GRF4-mediated activation of Ras in the presence of PKA inhibitor: 30 min; for cAMP stimulation of GRF4-mediated activation of Ras in the presence of PKA inhibitor: H-89 10 μM or Rp-8-Br-cAMPS 50 μM, then 8-Br-cAMP 500 μM; for GRF4 stimulation of Ras activation enhanced following treatment / Enhancement of activation of Ras by GRF4 by membrane permeable cNMP analogue: HEK-293T cells transfected with Flag-GRF4; for Enhancement of activation of Ras by GRF4 by membrane permeable cNMP analogue: analogue 500 μM
T1 construct: Flag, HA or myc tags was added to the N-terminus of full length GRF4 using PCR; expressed in transfected cells; host or cells: HEK-293T
T1 sequence (Q9Y4G8 1-1499): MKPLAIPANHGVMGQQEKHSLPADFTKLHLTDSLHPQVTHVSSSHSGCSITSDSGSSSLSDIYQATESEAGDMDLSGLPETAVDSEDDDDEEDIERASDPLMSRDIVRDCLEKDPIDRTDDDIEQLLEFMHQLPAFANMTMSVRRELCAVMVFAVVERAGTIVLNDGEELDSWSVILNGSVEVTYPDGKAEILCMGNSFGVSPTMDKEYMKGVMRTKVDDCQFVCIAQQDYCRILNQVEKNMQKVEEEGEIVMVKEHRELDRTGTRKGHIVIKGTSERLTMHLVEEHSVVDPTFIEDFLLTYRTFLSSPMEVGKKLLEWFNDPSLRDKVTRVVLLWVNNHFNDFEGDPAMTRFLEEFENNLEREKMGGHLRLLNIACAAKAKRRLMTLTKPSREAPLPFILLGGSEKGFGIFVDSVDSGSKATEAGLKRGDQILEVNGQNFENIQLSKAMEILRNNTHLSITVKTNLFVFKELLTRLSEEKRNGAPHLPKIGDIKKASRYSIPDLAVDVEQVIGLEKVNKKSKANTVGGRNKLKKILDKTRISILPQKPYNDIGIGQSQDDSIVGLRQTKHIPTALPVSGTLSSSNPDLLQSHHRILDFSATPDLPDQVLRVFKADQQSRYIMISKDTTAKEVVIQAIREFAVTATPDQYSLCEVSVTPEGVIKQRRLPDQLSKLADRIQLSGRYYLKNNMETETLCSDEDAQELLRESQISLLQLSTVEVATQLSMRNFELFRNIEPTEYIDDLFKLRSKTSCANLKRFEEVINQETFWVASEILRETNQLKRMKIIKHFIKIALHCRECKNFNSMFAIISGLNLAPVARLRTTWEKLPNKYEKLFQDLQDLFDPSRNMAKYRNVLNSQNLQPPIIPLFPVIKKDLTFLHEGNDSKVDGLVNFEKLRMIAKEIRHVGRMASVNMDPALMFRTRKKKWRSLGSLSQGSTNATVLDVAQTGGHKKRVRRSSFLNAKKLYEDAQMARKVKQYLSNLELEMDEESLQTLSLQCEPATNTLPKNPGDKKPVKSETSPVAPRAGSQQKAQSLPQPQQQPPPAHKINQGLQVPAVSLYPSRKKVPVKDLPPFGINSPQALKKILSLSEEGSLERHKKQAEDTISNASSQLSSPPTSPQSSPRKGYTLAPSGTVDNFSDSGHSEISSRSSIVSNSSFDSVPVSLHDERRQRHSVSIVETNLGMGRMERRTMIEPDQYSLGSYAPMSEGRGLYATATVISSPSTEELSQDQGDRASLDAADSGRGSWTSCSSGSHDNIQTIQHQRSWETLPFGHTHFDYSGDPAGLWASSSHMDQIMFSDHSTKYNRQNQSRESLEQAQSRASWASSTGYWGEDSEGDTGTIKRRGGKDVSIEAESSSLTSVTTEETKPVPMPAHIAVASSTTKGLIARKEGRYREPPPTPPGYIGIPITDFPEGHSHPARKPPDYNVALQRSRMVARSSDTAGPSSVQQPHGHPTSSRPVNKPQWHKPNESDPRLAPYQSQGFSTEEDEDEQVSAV
Procedure: Cells were then lysed and lysate incubated with immobilized Ras binding domain (RBD) of Raf1 (GST-Raf1-RBD), which binds activated (GTP-bound) Ras. Co-precipitated activated ras was then detected with anti Ras antibodies (Quality Biotech) (upper panel). Lower 2 panels depict the amounts of total endogenous Ras and of the transfected GRF4 (detected with anti Ras and anti Flag antibodies, respectively).
Cells were transfected (or not) with Flag-GRF4 and serum-starved overnight as in (a) above, pre-treated (or not) with the PKG inhibitors H8 (5 μM) or Rp-cGMPS (25 μM) and then treated (or not) with the cGMP analogue 8-Br-cGMP (500 μM), as in (a) above. Activated Ras was then precipitated with GST-Raf1-RBD (upper panel), as in (a). Lower panels show total endogenous Ras and GRF4 expressed in the cells.
Parallel treatments with 8-Br-cAMP or 8-Br-cGMP were used as positive controls. Lysates of treated cells were then incubated with GST-Raf1-RBD to precipitate activated Ras, and immunoblotted with anti Ras antibodies, as above (upper panel). Lower panels are as in (a) and (b) above.
The membrane permeable 8-Br-cAMP and 8Br-cGMP analogs (Sigma) were used at a concenreation of 500 μM for 15 min. Inhibitors of PKA: H-89 and Rp-8-Br-cAMPS (CalBiochem) were used at 10 μM and 50 μM, respectively, for 30 min. Inhibitors of PKG: H-8 and Rp-8-Br-cGMPS (CalBiochem) were used at 5 μM and 25 μM, respectively, for 30 min. Activators of Adenylyl Cyclase, Forskolin (Sigma), and activator of Guanylyl Cyclase, YC-1 (CalBiochem), were used at 50 μM and 100 μM, respectively, for 15 min.
(§1) HEK-293T cells were transfected as above, serum starved overnight and then subjected to various treatments, as described in the text. Cells were lysed with lysis buffer (25 mM Hepes, pH 7.5, 150 mM NaCl, 1% NP-40, 0.25% Na deoxycholate, 10% glycerol, 25 mM NaF, 10 mM MgCl2, 1 mM EDTA, 1 mM NaVO4, […]) and the level of Ras.GTP or Rap. GTP in the lysates was determined using activation specific probes as described. Briefly, to determined the levels of active Ras (Ras-GTP) in cell, sepharose-bound GST fusion protein of the Ras-binding domain (RBD) of Raf-1 (GST-Raf1-RBD; Upstate Biotechnology Inc.) was used to precipitate Ras-GTP from cell lysates, and the amount of Ras-GTP determined by immunoblotting with anti Ras antibodies (Quality Biotech). Similarly, to determine the level of Rap1-GTP in cell lysates, sepharose-bound GST fusion proteins of the Rap1-binding domain of RaIGDS (GST-RaIGDS-RBD) were used to precipitate Rap1-GTP, which was then detected on a Western blot using anti-Rap1 antibodies (Transduction Lab).

Rap1 = Rap1 activation assay in living cells (GST-RalGDS-RBD pull-down); type: cell-based, human; settings: HEK-293T cells expressing GRF4
Procedure: as §1

GRF4 [2] = target: T1, GRF4; test: Activation of Ras and MAPK by cNMP analogues in GRF4-transfected HEK-293T cells; type: cell-based; settings: HEK-293T cells transfected with GRF4; not in untransfected cells
Procedure: The small GTPase Ras controls the MAPK pathway and exerts its effects on cellular processes primarily through this pathway. MAPK is a downstream kinase of Ras and thus, Ras activation leads to MAPK activation (FIG. 6A). Therefore, we show the GRF4 effects on MAPK activation using assays in which levels of active MAPK in cells is determined using antibodies recognizing phosphorylated (active) MAPK.

GRF4-cNMP-BD = target: T2, GRF4-cNMP-BD (Homo sapiens, UniProt Q9Y4G8); test: cAMP-agarose binding assay; settings: data not shown
T2 construct: The GST-GRF4-cNMP-BD (residue 101-303); made in house
T2 sequence (Q9Y4G8 101-303): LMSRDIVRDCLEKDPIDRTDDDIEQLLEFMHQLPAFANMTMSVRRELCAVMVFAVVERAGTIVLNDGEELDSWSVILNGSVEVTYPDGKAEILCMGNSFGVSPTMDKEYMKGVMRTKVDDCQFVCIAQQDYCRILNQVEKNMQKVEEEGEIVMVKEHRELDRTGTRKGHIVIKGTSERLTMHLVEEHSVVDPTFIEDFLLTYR
Procedure: Right and left panels in (b) represent two separate experiments.
Following extensive washes in HNTG (20 mM Hepes, pH 7.5, 150 mM NaCl, 0.1% Triton ×100, 10% Glycerol) proteins were eluted off beads with sample buffer, separated on SDS-PAGE and immunoblotted with either anti GST antibodies for the in vitro binding experiments, or with anti GRF4 antibodies for the pull down experiments.

Nc1nc2c(nc(Br)n2[C@@H]2O[C@@H]3COP(O)(=S)O[C@H]3[C@H]2O)c(=O)[nH]1 (single isomer, unassigned) [RP8-Br-cGMPS, Guanosine 3′,5′-cyclic monophosphorothioate, 8-Bromo-, Rp-isomer]
Effect of PKG inhibitor on 8-Br-cGMP enhanced activation of Ras by GRF4 (GRF4 [1]): lack of effect

Nc1ncnc2c1nc(Br)n2C1OC2COP(O)(=S)OC2C1O (single isomer, unassigned) [Rp8-Br-cAMPS, Adenosine 3′,5′-cyclic monophosphorothioate, 8-Bromo-, Rp-isomer]
cAMP stimulation of GRF4-mediated activation of Ras in the presence of PKA inhibitor (GRF4 [1]): still able to stimulate

Nc1ncnc2c1nc(Br)n2[C@@H]1O[C@@H]2COP(=O)(O)O[C@H]2[C@H]1O [8-Br-cAMP]
Stimulation of GRF4-mediated activation of Rap1 (Rap1): not stimulated | GRF4 stimulation of Ras activation enhanced following treatment (GRF4 [1]; 8-Br-cAMP 500 μM 15 min plus H-89 10 μM 30 min pre-treatment): 3.5 fold | GRF4 stimulation of Ras activation enhanced following treatment (GRF4 [1]; 8-Br-cAMP 500 μM, 15 min): 3.9 fold | Enhancement of activation of Ras by GRF4 by membrane permeable cNMP analogue (GRF4 [1]; 15 min): greatly enhanced | Activation of Ras and of MAPK in GRF4-expressing cells (GRF4 [2]): leads to activation

Nc1nc2c(nc(Br)n2[C@@H]2O[C@@H]3COP(=O)(O)O[C@H]3[C@H]2O)c(=O)[nH]1 [8-Br-cGMP]
Enhancement of activation of Ras by GRF4 by membrane permeable cNMP analogue (GRF4 [1]; 15 min): greatly enhance | Activation of Ras and of MAPK in GRF4-expressing cells (GRF4 [2]): leads to activation

CNCCNS(=O)(=O)c1cccc2cnccc12 [H-8, N-[2-(methylamino)ethyl]-5-isoquinolinesulfonamide]
Effect of PKG inhibitor on 8-Br-cGMP enhanced activation of Ras by GRF4 (GRF4 [1]): lack of effect

O=S(=O)(NCCNCC=Cc1ccc(Br)cc1)c1cccc2cnccc12 [H-89, N-[2-((Pbromocinnamyi)amino)ethyl]-5-isoquinoiinesulfonamide]
cAMP stimulation of GRF4-mediated activation of Ras in the presence of PKA inhibitor (GRF4 [1]): still able to stimulate

Nc1nc2c(ncn2[C@@H]2O[C@@H]3COP(=O)(O)O[C@H]3[C@H]2O)c(=O)[nH]1 [cGMP, reference compound]
Competition of cAMP binding to the GRF4-cNMP-BD (GRF4-cNMP-BD): effectively competed
